Assay results reported in patent US20240058265A1, “TREATMENT OF OCULAR DISEASES USING ENDOTHELIN RECEPTOR ANTAGONISTS” (Perfuse Therapeutics, Inc., priority 2021, published 2024).
Values after ≈ are worked out from the molar mass of the structure shown. Values joined by “and” are separate entries in the source; they are usually repeats but may differ in a detail not shown here. Equal values may be shown once. Read-outs that look alike come from different tables or passages of the source. Values belong to the compound of their own block, whether it stands above or below them. Where no end group is shown, it is not given here.

Legend:
[1] = Solubility of crystalline forms; type: physicochemical; conditions: room temperature, 24 hours
Description: The solubility described herein can be measured using the following procedure: • ii. Solubility Analysis Protocol • 1. No less than 2.0 mg samples are weighed into lower chamber of whatman miniuniprep vials (GE Healthcare). 450 μL of buffer was added into each chamber. • 2. Filter pistons of miniuniprep vials are placed and compressed to the position of the liquid level to allow for contact of buffer and compound with the filter during incubation. • 3. The samples are vortexed for 2 minutes followed by incubation at room temperature (about 25±2° C.) for 24 hours with shaking at 500 rpm. • 4. Miniunipreps are compressed to prepare the filtrates for injection into HPLC system. All vials are inspected for visible undissolved material before filtering and for leakage after filtering. • 5. Dilute supernatant with buffer by a factor of 100 folds to make diluents which are analyzed with HPLC.

[2] = tested on: laser-induced glaucoma eye; test: Laser-induced glaucoma non-human primate, intraocular pressure after topical administration; type: in vivo, rhesus macaque, Macaca Mulatta; conditions: single dose 50 μL topical 0.5% in each eye, 120 minutes
Description: Non-human primates (rhesus macaque, Macaca Mulatta) were obtained for this study. One eye of each animal underwent induction of elevation of intraocular pressure (TOP) by repeated laser photocoagulation of the trabecular meshwork. Imaging sessions were repeated to monitor the optic nerve head (ONH) and retinal structural changes. A single dose of 0.5% Timolol or a single dose of 2 mg/mL Edonentan was topically administered to three non-human primates that have laser-induced glaucoma in their right eyes (OD) with 1-week wash-out in a randomized order.

[3] = Slurry conversion of crystalline forms (relative thermodynamic stability); type: physicochemical
Description: In an alternate method, 150 mg of Edonentan (Form 3) was added to a mixture of isopropanol and water (1 mL and 2 mL, respectively). The resulting slurry was stirred at 15° C. for 48 hours and then filtered.
In an alternate method, 200 mg of Edonentan (Form 1) was added to a mixture of isopropanol and water (1.3 mL and 2.6 mL, respectively). The resulting solution was heated to 80° C. and stirred for 24 h, then cooled and filtered.

[4] = Solubility (pH 2, pH 7, ethyl acetate); type: physicochemical
From the text: (§1) In the above table, the physicochemical data, e.g., solubility, were obtained following standard protocols known in the field (see, e.g., Reis et al., Mini Rev Med Chem., 2010, 10(11):1071-6; Avdeef et al., Expert Opin Drug Metab Toxicol., 2005, 1(2):325-42; Bharate et al., Comb Chem High Throughput Screen., 2016, 19(6):461-9; and Jain et al., J Pharm Biomed Anal., 2013, 86:11-35.); and the biochemical data, i.e., potency for ETA/ETB, were obtained following the protocols known in the field (see, e.g., Kirkby et al., Br J Pharmacol., 2008, 153(6):1105-19; and Maguire et al., Br J Pharmacol., 2014, 171(24):5555-72.).

ETA/ETB receptor = conditions: cited from earlier work
ET-1 induced vasospasm = test: Rabbit ET-1 induced vasospasm model, retinal blood flow (OCT-A, FA); type: in vivo, rabbit (Oryctolagus cuniculus)
Description: Adult, male Dutch-belted rabbits were given a 20 μl intravitreal injection (IVT) of 0.5 μg of ET-1 followed by a 20 μl intravitreal injection of 10-100 μg Edonentan given 30 min after the ET-1 administration. IOP, optical coherence tomography—angiography (OCT-A), and fluorescein angiograms (FA) were performed at pre-specified time points (30, 45, 60, and 75 min) following ET-1 and Edonentan administration to assess retinal blood flow changes induced by ET-1+/−Edonentan. […] To evaluate the effect of retinal blood flow following intravitreally administered endothelin-1 (ET-1) followed by the antagonist Edonentan in the rabbit, rabbits (Oryctolagus cuniculus) were given a 20 μL intravitreal injection of ET-1 in the left eye followed by a 20 μL intravitreal injection of Edonentan at 2 (or 3) different doses (e.g. 0.1 μg, 0.5 μg, 2.5 μg). The pulse ox, tonometry, optical coherence tomography angiography (OCTA), fluorescein angiography (FA) and retinal leakage scoring were performed for evaluation.

ETA receptor = biological target: T1, ETA receptor (Homo sapiens, UniProt P25101); test: Functional potency for ETA receptor; type: biochemical
T1 sequence (P25101 21-427): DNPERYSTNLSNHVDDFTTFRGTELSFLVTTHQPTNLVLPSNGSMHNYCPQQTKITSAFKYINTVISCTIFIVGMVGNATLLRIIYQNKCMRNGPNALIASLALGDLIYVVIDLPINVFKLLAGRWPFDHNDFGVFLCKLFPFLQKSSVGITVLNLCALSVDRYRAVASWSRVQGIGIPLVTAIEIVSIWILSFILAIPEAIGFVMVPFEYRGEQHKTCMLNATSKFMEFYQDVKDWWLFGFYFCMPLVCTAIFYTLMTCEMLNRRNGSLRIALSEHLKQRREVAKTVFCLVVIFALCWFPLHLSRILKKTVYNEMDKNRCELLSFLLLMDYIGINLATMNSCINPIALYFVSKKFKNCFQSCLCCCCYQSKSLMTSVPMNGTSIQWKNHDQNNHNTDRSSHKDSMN
From the text: as §1

[5] = Pharmacokinetics after topical or oral administration in the rat; type: in vivo, Brown Norway rats
Description: After the administrations, the animals (N=2) were euthanized at different time points (e.g. 4 and 8 hours) and tissues were collected for analysis. List of tissues collected include plasma, retina/retinal pigment epithelium (RPE)/choroid, vitreous humor and aqueous humor.

elevated IOP rat eye = test: Morrison's rat model of glaucoma (RGC counts, PERG); type: in vivo, Brown Norway rats; conditions: topical eye drops 100 μg per dose, five days a week, four weeks
From the text: Adult male and female retired breeder Brown Norway rats (approximate age groups of 8 to 11 months) were obtained from Envigo (Indianapolis, IN). Baseline IOP measurements and pattern electroretinogram (PERG) amplitudes were collected prior to the surgery for elevation of IOP (to ensure that the IOP and PERG amplitudes were in the expected range of values). IOP was elevated in one eye (left eye) of the rats, while the corresponding right eyes served as contralateral controls. The Morrison method to elevate IOP in rats was carried out by injection of 50 μL of hypertonic saline through the episcleral veins to sclerose the trabecular meshwork. IOP was measured twice a week throughout the entire duration of the experiment. […] After detecting an elevation of IOP for two consecutive days, topical administration of eye drops ([…] (100 μg,) per dose of the tested compounds in the IOP elevated eye) was commenced and carried out for five days a week for a total of four weeks. In the 4th week of treatment, PERG analysis was carried out and rats were sacrificed by an overdose of pentobarbital (fatal-Plus). Aqueous humor was collected from the rat eyes, frozen and shipped for analysis. Retinal flat mounts were prepared, immunostained with the RGC marker, Brn3a antibody and surviving RG-Cs were counted in two eccentricities (central and peripheral).
For this study, the Morrison's model was used to induce ocular hypertension in adult male retired breeder Brown Norway rats as previously described by. Morrison et al., (Morrison J C, Moore C G, Deppmeier L M, Gold B G, Meshul C K, Johnson E C. A rat model of chronic pressure-induced optic nerve damage. Exp Eye Res. 1997;64(1):85-96).
The immunostained retinal flat mounts were obtained to measure the retinal ganglion cell (RGC) counts. To obtain immunostained retinal flat mounts, the animals were euthanized after the treatments and then their eyes were enucleated. The eye cups were fixed overnight at 4° C. in 4% paraformaldehyde (PFA) and retinal flat mounts were prepared for collecting images. The retinal ganglion cell (RGC) counting was conducted using the images of immunostained retinal flat mounts. The images were uploaded to ImageJ, a photo editor designed for biology research (Rasband, 1997-2018) and the labeled retinal ganglion cells were counted manually in two eccentricities (central and peripheral).
Pattern ERG (PERG) was used to assess the RGC function. […] Briefly, PERG signals were acquired from a DTL-plus electrode placed on the lower part of the corneal surface and the PERG waves were analyzed using the EMWIN software (LKC). The difference between the amplitude of the major positive (P1) and negative (N2) waves were calculated to decipher the PERG amplitude.

Stability in solid state = type: physicochemical; conditions: 2 h@125° C.
From the text: as §1

Permeability (PAMPA) = type: in vitro ADME
From the text: as §1

Compound: CC(C)(C)NC[C@H](O)COc1nsnc1N1CCOCC1 [Timolol, reference compound]
IOP reduction from pre-dose to post-dose ([2]; Control 1): about 20%
IOP reduction from pre-dose to post-dose ([2]; Control 2): about 30%

Compound: CCCCCS(=O)(=O)N(CCC)CCN1C[C@H](c2ccc3c(c2)OCO3)[C@@H](C(=O)O)[C@@H]1c1ccc(OC)c(F)c1 [A-182086, (2R,3R,4S)-4-(2H-1,3-benzodioxol-5-yl)-2-(3-fluoro-4-methoxyphenyl)-1-[2-(N-propylpentane-1-sulfonamido)ethyl]pyrrolidine-3-carboxylic acid]
Solubility in Ethyl Acetate (rating) ([4]; ethyl acetate): Good
solubility ([4]; ethyl acetate, organic solvent or mixture, read-out: Solubility in Ethyl Acetate): > 10600 µg/mL and > 18400 µM
solubility ([4]; pH 2, read-out: Solubility at pH 2): 159.8 µM (≈ 92.5 µg/mL)
Solubility at pH 7 ([4]; pH 7, amorphous form): 298.4 μM
ETA/ETB selectivity (ETA/ETB receptor): 4 fold
Fluorescein dye velocity as an index of retinal blood flow (ET-1 induced vasospasm; healthy rabbits, 0.5 μg ET-1 and 10 μg antagonist IVT (FIG. 3)): improved to control levels
Functional potency for ETA and ETB receptors (rating) (ETA receptor): High potency
Specificity ETA vs ETB (rating) (ETA receptor): Low specificity
Detection in retina/RPE/choroid after oral administration ([5]; oral, 50 mg/kg): detectable
Detection in retina/RPE/choroid, aqueous humor and vitreous humor ([5]; topical eye drop 100 μg, 4 and 8 hours): detected
RGC function (PERG) (elevated IOP rat eye): maintained RGC function
RGC loss (RGC counts, retinal flat mounts) (elevated IOP rat eye): prevented RGC loss
Stability in Solid State (verdict) (Stability in solid state): unstable
Stability in Solid State, remaining (Stability in solid state): about 87% remaining/
Permeability (rating) (Permeability (PAMPA)): Mid-High

Compound: ET-1: Endothelin-1, given intravitreally to induce vasospasm in rabbit retina (CSCSSLMDKECVYFCHLDIIW; ends and bridges not checked; cysteine pairing not given here; UniProt P05305 53-73, looked up) [reference compound]
Vasoconstriction in the retinal vascular beds (ET-1 induced vasospasm; 0.5 μg ET-1 IVT, within 45 min): induced a clear vasoconstriction

Second part, led by results:

Solubility pH 7.0 Phosphate Buffer [1]: 251 μg/mL
Compound: Cc1onc(NS(=O)(=O)c2ccccc2-c2ccc(-c3ncco3)cc2CN(C)C(=O)CC(C)(C)C)c1C [Form 3]

Solubility pH 7.0 Phosphate Buffer [1]: 35 μg/mL
Compound: Cc1onc(NS(=O)(=O)c2ccccc2-c2ccc(-c3ncco3)cc2CN(C)C(=O)CC(C)(C)C)c1C [Form 2]

Solubility pH 7.0 Phosphate Buffer [1]: 264 μg/mL
Compound: Cc1onc(NS(=O)(=O)c2ccccc2-c2ccc(-c3ncco3)cc2CN(C)C(=O)CC(C)(C)C)c1C [Form 1]

Solubility pH 7.0 Phosphate Buffer [1]: 138 μg/mL
Compound: Cc1onc(NS(=O)(=O)c2ccccc2-c2ccc(-c3ncco3)cc2CN(C)C(=O)CC(C)(C)C)c1C [Form 4]
Relative thermodynamic stability of crystalline form ([3]; isopropanol and water, 80° C., 24 h): more thermodynamically stable than Form 1
Relative thermodynamic stability of crystalline form ([3]; slurry in isopropanol and water, 15° C., 48 hours): more thermodynamically stable than Form 3
